# Data as given in US20250313553A1, “ANNULATED 2-AMINO-3-CYANO THIOPHENES AND DERIVATIVES FOR THE TREATMENT OF CANCER” (Boehringer Ingelheim Int'l GmbH Corp., priority 2021, published 2025).
# Tested on: GP2D cells
# Assay: GP2D proliferation assay (120 h)
# Assay type: cell-based
# Conditions: colorectal cancer, G12D
# Procedure: GP2D cells (ATCC No. CRL-5807) are dispensed into white 384-well plates, flat and white bottom(Perkin Elmer, 6007680) at a density of 500 cells per well in 40 μl DMEM (Sigma, D6429)+1×GlutaMAX (Gibco, 35050038)+10% FCS (fetal calf serum). […] Compounds (10 mM stock in DMSO) are added at logarithmic dose series using the HP Digital Dispenser D300 (Tecan), including DMSO controls and normalizing for added DMSO. For the T0 time point measurement, untreated cells are analyzed at the time of compound addition. Plates are incubated for 120 h, and cell viability is measured using CellTiter-Glo luminescent cell viability reagent (Promega product code G7570). Viability (stated as percent of control) is defined as relative luminescence units RLU of each well divided by the RLU of cells in DMSO controls. IC50 values are determined from viability measurements by non-linear regression using a four-parameter model.
structure (smiles),measurement,value
C[C@H](Oc1ccnc(-c2noc([C@@]3(C)CCCc4sc(N)c(C#N)c43)n2)n1)[C@@H]1CCCN1C [Example V-11],IC50,152 nM
